Experimental data reported in patent publication US10548317B2, “Pesticidally active pyrazole derivatives” (SYNGENTA PARTICIPATIONS AG, priority 2015, dated 2020).

What was measured:
Type in all cases: in vivo
[1] = system: Diabrotica balteata; assay: Diabrotica balteata (corn root worm) maize sprout test; conditions: 96 h, application rate of 200 ppm, maize sprouts, L2 larvae, 4 days after infestation, read-out: effect in at least one of the two categories (mortality or growth inhibition)
Protocol: Diabrotica balteata, (Corn Root Worm)
Maize sprouts, placed on an agar layer in 24-well microtiter plates were treated with aqueous test solutions prepared from 10'000 ppm DMSO stock solutions by spraying. After drying, the plates were infested with L2 larvae (6 to 10 per well). The samples were assessed for mortality and growth inhibition in comparison to untreated samples 4 days after infestation. The following compounds gave an effect of at least 80% in at least one of the two categories (mortality or growth inhibition) at an application rate of 200 ppm: 1, 3, 4, 5, 6, 7, 8, 9, 10, 11, 12, 14, 15, 16, 17, 18, 19, 20, 21, 22, 23, 24, 25, 26, 27, 28, 29, 30, 31, 32, 33, 35, 36, 37, 38, 39, 40, 41, 42, 43, 44, 45, 48, 50, 51, 52, 53, 54 and 55.

[2] = system: Thrips tabaci; assay: Thrips tabaci (onion thrips) sunflower leaf disc test; conditions: foliar, 144 h, application rate of 200 ppm, sunflower leaf discs, mixed ages, 6 days after infestation
Protocol: Thrips tabaci (Onion thrips):
Sunflower leaf discs were placed on agar in 24-well microtiter plates and sprayed with aqueous test solutions prepared from 10'000 ppm DMSO stock solutions. After drying the leaf discs were infested with a thrips population of mixed ages. The samples were assessed for mortality 6 days after infestation.

[3] = system: Spodoptera littoralis; assay: Spodoptera littoralis (Egyptian cotton leaf worm) leaf disc spray test; conditions: foliar, 72 h, application rate of 200 ppm, cotton leaf discs, L1 larvae, 3 days after infestation, read-out: control (at least one of mortality, anti-feedant effect, growth inhibition)
Protocol: Spodoptera littoralis (Egyptian Cotton Leaf Worm)
Cotton leaf discs were placed on agar in 24-well microtiter plates and sprayed with aqueous test solutions prepared from 10'000 ppm DMSO stock solutions. After drying the leaf discs were infested with five L1 larvae. The samples were assessed for mortality, anti-feedant effect, and growth inhibition in comparison to untreated samples 3 days after infestation. Control of Spodoptera littoralis by a test sample is when at least one of mortality, anti-feedant effect, and growth inhibition is higher than the untreated sample.

[4] = system: Euschistus heros; assay: Euschistus heros (neotropical brown stink bug) soybean leaf test; conditions: 120 h, application rate of 200 ppm, soybean leaves, N2 nymphs, 5 days after infestation, read-out: effect in at least one of the two categories (mortality or growth inhibition)
Protocol: Euschistus heros (Neotropical Brown Stink Bug)
Soybean leaves on agar in 24-well microtiter plates were sprayed with aqueous test solutions prepared from 10'000 ppm DMSO stock solutions. After drying the leaves were infested with N2 nymphs. The samples were assessed for mortality and growth inhibition in comparison to untreated samples 5 days after infestation. The following compounds gave an effect of at least 80% in at least one of the two categories (mortality or growth inhibition) at an application rate of 200 ppm: 3, 4, 5, 6, 9, 10, 12, 14, 15, 16, 17, 18, 20, 24, 27, 28, 29, 31, 32, 33, 36, 37, 38, 42, 43, 45, 50, 52, 53, 54 and 55.

[5] = system: Plutella xylostella; assay: Plutella xylostella (diamond back moth) artificial diet test; conditions: 120 h, application rate of 200 ppm, L2 larvae, 5 days after infestation, read-out: effect in at least one of the two categories (mortality or growth inhibition)
Protocol: Plutella xylostella (Diamond Back Moth):
24-well microtiter plates with artificial diet were treated with aqueous test solutions prepared from 10'000 ppm DMSO stock solutions by pipetting. After drying, the plates were infested with L2 larvae (10 to 15 per well). The samples were assessed for mortality and growth inhibition in comparison to untreated samples 5 days after infestation. The following compounds gave an effect of at least 80% in at least one of the two categories (mortality or growth inhibition) at an application rate of 200 ppm: 1, 2, 3, 4, 5, 6, 7, 8, 9, 10, 11, 12, 13, 14, 15, 16, 17, 18, 19, 20, 21, 22, 23, 24, 25, 26, 27, 28, 29, 30, 31, 32, 33, 35, 36, 37, 38, 39, 40, 41, 42, 43, 44, 45, 46, 47, 48, 50, 51, 52, 53, 54 and 55.

[6] = system: Tetranychus urticae; assay: Tetranychus urticae (two-spotted spider mite) bean leaf disc test; conditions: foliar, 192 h, application rate of 200 ppm, bean leaf discs, mixed population (mobile stages), 8 days after infestation
Protocol: Tetranychus urticae (Two-Spotted Spider Mite):
Bean leaf discs on agar in 24-well microtiter plates were sprayed with aqueous test solutions prepared from 10'000 ppm DMSO stock solutions. After drying the leaf discs were infested with a mite population of mixed ages. The samples were assessed for mortality on mixed population (mobile stages) 8 days after infestation.

Cn1nc(C(F)(F)C(F)(F)F)c(C(F)(F)F)c1-n1cc(-c2cc(C(=O)NC3CC3)c(Cl)s2)cn1 [Compound 3, 2-chloro-N-cyclopropyl-5-[1-[2-methyl-5-(1,1,2,2,2-pentafluoroethyl)-4-(trifluoromethyl)pyrazol-3-yl]pyrazol-4-yl]thiophene-3-carboxamide]
≥ 80%: percent effect (mortality or growth inhibition) at 200 ppm [1] | mortality at 200 ppm [2] | control (mortality, anti-feedant effect or growth inhibition) at 200 ppm [3] | percent effect (mortality or growth inhibition) at 200 ppm [4] | percent effect (mortality or growth inhibition) at 200 ppm [5] | mortality at 200 ppm [6]

Cn1nc(C(F)(F)C(F)(F)F)c(C(F)(F)F)c1-n1cc(-c2cc(C(=O)NC3(C#N)CC3)c(Cl)s2)cn1 [Compound 4, 2-chloro-N-(1-cyanocyclopropyl)-5-[1-[2-methyl-5-(1,1,2,2,2-pentafluoroethyl)-4-(trifluoromethyl)pyrazol-3-yl]pyrazol-4-yl]thiophene-3-carboxamide]
≥ 80%: percent effect (mortality or growth inhibition) at 200 ppm [1] | mortality at 200 ppm [2] | control (mortality, anti-feedant effect or growth inhibition) at 200 ppm [3] | percent effect (mortality or growth inhibition) at 200 ppm [4] | percent effect (mortality or growth inhibition) at 200 ppm [5] | mortality at 200 ppm [6]

Cn1nc(C(F)(F)C(F)(F)F)c(C(F)(F)F)c1-n1cc(-c2cc(C(=O)NC3(C(N)=O)CC3)c(Cl)s2)cn1 [Compound 5, N-(1-carbamoylcyclopropyl)-2-chloro-5-[1-[2-methyl-5-(1,1,2,2,2-pentafluoroethyl)-4-(trifluoromethyl)pyrazol-3-yl]pyrazol-4-yl]thiophene-3-carboxamide]
≥ 80%: percent effect (mortality or growth inhibition) at 200 ppm [1] | mortality at 200 ppm [2] | control (mortality, anti-feedant effect or growth inhibition) at 200 ppm [3] | percent effect (mortality or growth inhibition) at 200 ppm [4] | percent effect (mortality or growth inhibition) at 200 ppm [5] | mortality at 200 ppm [6]

Cn1nc(C(F)(F)C(F)(F)F)c(C(F)(F)F)c1-n1cc(-c2cc(C(=O)NCC(F)(F)F)c(Cl)s2)cn1 [Compound 14]
≥ 80%: percent effect (mortality or growth inhibition) at 200 ppm [1] | mortality at 200 ppm [2] | control (mortality, anti-feedant effect or growth inhibition) at 200 ppm [3] | percent effect (mortality or growth inhibition) at 200 ppm [4] | percent effect (mortality or growth inhibition) at 200 ppm [5]

Cn1nc(C(F)(F)C(F)(F)F)c(C(F)(F)F)c1-n1cc(-c2cc(C(=O)NC3(c4ccccn4)CC3)c(Cl)s2)cn1 [Compound 15]
≥ 80%: percent effect (mortality or growth inhibition) at 200 ppm [1] | control (mortality, anti-feedant effect or growth inhibition) at 200 ppm [3] | percent effect (mortality or growth inhibition) at 200 ppm [4] | percent effect (mortality or growth inhibition) at 200 ppm [5] | mortality at 200 ppm [6]

Cn1nc(C(F)(F)C(F)(F)F)c(C(F)(F)F)c1-n1cc(-c2cc(C(N)=O)c(Cl)s2)cn1 [Compound 16]
≥ 80%: percent effect (mortality or growth inhibition) at 200 ppm [1] | mortality at 200 ppm [2] | control (mortality, anti-feedant effect or growth inhibition) at 200 ppm [3] | percent effect (mortality or growth inhibition) at 200 ppm [4] | percent effect (mortality or growth inhibition) at 200 ppm [5]

CNC(=O)c1cc(-c2cnn(-c3c(C(F)(F)F)c(C(F)(F)C(F)(F)F)nn3C)c2)sc1Cl [Compound 18]
≥ 80%: percent effect (mortality or growth inhibition) at 200 ppm [1] | mortality at 200 ppm [2] | control (mortality, anti-feedant effect or growth inhibition) at 200 ppm [3] | percent effect (mortality or growth inhibition) at 200 ppm [4] | percent effect (mortality or growth inhibition) at 200 ppm [5]

C=C(F)CNC(=O)c1cc(-c2cnn(-c3c(C(F)(F)F)c(C(F)(F)C(F)(F)F)nn3C)c2)sc1Cl [Compound 24]
≥ 80%: percent effect (mortality or growth inhibition) at 200 ppm [1] | mortality at 200 ppm [2] | control (mortality, anti-feedant effect or growth inhibition) at 200 ppm [3] | percent effect (mortality or growth inhibition) at 200 ppm [4] | percent effect (mortality or growth inhibition) at 200 ppm [5]

Cn1nc(C(F)(F)C(F)(F)F)c(C(F)(F)F)c1-n1cc(-c2cc(C(=O)NCC=C(Cl)Cl)c(Cl)s2)cn1 [Compound 28]
≥ 80%: percent effect (mortality or growth inhibition) at 200 ppm [1] | control (mortality, anti-feedant effect or growth inhibition) at 200 ppm [3] | percent effect (mortality or growth inhibition) at 200 ppm [4] | percent effect (mortality or growth inhibition) at 200 ppm [5] | mortality at 200 ppm [6]

Cn1nc(C(F)(F)C(F)(F)F)c(C(F)(F)F)c1-n1cc(-c2cc(C(=O)NC3CC3F)c(Cl)s2)cn1 (centres unmarked) [Compound 32]
≥ 80%: percent effect (mortality or growth inhibition) at 200 ppm [1] | mortality at 200 ppm [2] | control (mortality, anti-feedant effect or growth inhibition) at 200 ppm [3] | percent effect (mortality or growth inhibition) at 200 ppm [4] | percent effect (mortality or growth inhibition) at 200 ppm [5]

Cn1nc(C(F)(F)C(F)(F)F)c(C(F)(F)F)c1-n1cc(-n2cc(C(=O)NC3CC3)c(C(F)(F)F)c2)cn1 [Compound 45]
≥ 80%: percent effect (mortality or growth inhibition) at 200 ppm [1] | mortality at 200 ppm [2] | control (mortality, anti-feedant effect or growth inhibition) at 200 ppm [3] | percent effect (mortality or growth inhibition) at 200 ppm [4] | percent effect (mortality or growth inhibition) at 200 ppm [5]

Cn1nc(OC(F)(F)C(F)C(F)(F)F)c(C(F)(F)F)c1-n1cc(-c2cc(C(=O)NC3(C#N)CC3)c(Cl)s2)cn1 (centres unmarked) [Compound 52]
≥ 80%: percent effect (mortality or growth inhibition) at 200 ppm [1] | control (mortality, anti-feedant effect or growth inhibition) at 200 ppm [3] | percent effect (mortality or growth inhibition) at 200 ppm [4] | percent effect (mortality or growth inhibition) at 200 ppm [5]

Cn1nc(OC(F)(F)C(F)C(F)(F)F)c(C(F)(F)F)c1-n1cc(-c2cc(C(=O)NC3CC3)c(Cl)s2)cn1 (centres unmarked) [Compound 53]
≥ 80%: percent effect (mortality or growth inhibition) at 200 ppm [1] | control (mortality, anti-feedant effect or growth inhibition) at 200 ppm [3] | percent effect (mortality or growth inhibition) at 200 ppm [4] | percent effect (mortality or growth inhibition) at 200 ppm [5]

Cn1nc(OC(F)(F)C(F)OC(F)(F)F)c(C(F)(F)F)c1-n1cc(-c2cc(C(=O)NC3(C#N)CC3)c(Cl)s2)cn1 (centres unmarked) [Compound 54]
≥ 80%: percent effect (mortality or growth inhibition) at 200 ppm [1] | control (mortality, anti-feedant effect or growth inhibition) at 200 ppm [3] | percent effect (mortality or growth inhibition) at 200 ppm [4] | percent effect (mortality or growth inhibition) at 200 ppm [5]

Cn1nc(OC(F)(F)C(F)OC(F)(F)F)c(C(F)(F)F)c1-n1cc(-c2cc(C(=O)NC3CC3)c(Cl)s2)cn1 (centres unmarked) [Compound 55]
≥ 80%: percent effect (mortality or growth inhibition) at 200 ppm [1] | control (mortality, anti-feedant effect or growth inhibition) at 200 ppm [3] | percent effect (mortality or growth inhibition) at 200 ppm [4] | percent effect (mortality or growth inhibition) at 200 ppm [5]
